From ChEMBL document CHEMBL1201862, “PubChem BioAssay data set” (2004)
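How tested: cells in 96-well plates exposed to compound for 48 hours at five concentrations. GI50 is the concentration that inhibits growth by half.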 Active and inactive are the calls of the source. No stated cut-off is given here; in the data, active = GI50 up to about 1.1 µM and inactive = higher.

Experiments:
Test in all cases: NCI tumour cell line growth inhibition, 48 h
DU-145 = test system: DU-145
HCC 2998 = test system: HCC 2998
COLO 205 = test system: COLO 205
MDA-MB-231 = test system: MDA-MB-231
SK-OV-3 = test system: SK-OV-3
SNB-19 = test system: SNB-19
U-251 = test system: U-251
RPMI-8226 = test system: RPMI-8226
RXF 393 = test system: RXF 393
HL-60 = test system: HL-60
MDA-N = test system: MDA-N
SK-MEL-28 = test system: SK-MEL-28
SF-295 = test system: SF-295
SK-MEL-2 = test system: SK-MEL-2
HT-29 = test system: HT-29
NCI/ADR-RES = test system: NCI/ADR-RES
SR = test system: SR
OVCAR-8 = test system: OVCAR-8
NCI-H522 = test system: NCI-H522
PC-3 = test system: PC-3

## N=C(N)NNC(=O)C(=O)O
DU-145
  GI50: > 100 µM (inactive)
HCC 2998
  GI50: > 100 µM (inactive)
COLO 205
  GI50: > 100 µM (inactive)
MDA-MB-231
  GI50: > 100 µM (inactive)
SK-OV-3
  GI50: 55.1 µM (inactive)
SNB-19
  GI50: > 100 µM (inactive)
U-251
  GI50: > 100 µM (inactive)
RPMI-8226
  GI50: > 100 µM (inactive)
RXF 393
  GI50: > 100 µM (inactive)
HL-60
  GI50: > 100 µM (inactive)
MDA-N
  GI50: > 100 µM (inactive)
SK-MEL-28
  GI50: > 100 µM (inactive)
SF-295
  GI50: > 100 µM (inactive)
SK-MEL-2
  GI50: > 100 µM (inactive)
HT-29
  GI50: > 100 µM (inactive)
NCI/ADR-RES
  GI50: > 100 µM (inactive)
SR
  GI50: > 100 µM (inactive)
OVCAR-8
  GI50: > 100 µM (inactive)
NCI-H522
  GI50: > 100 µM (inactive)
PC-3
  GI50: > 100 µM (inactive)

## COc1ccc2o/c(=N/c3ccccc3)c(C(N)=O)cc2c1
DU-145
  GI50: > 100 µM (inactive)
HCC 2998
  GI50: > 100 µM (inactive)
COLO 205
  GI50: > 100 µM (inactive)
MDA-MB-231
  GI50: > 53.3 µM (inactive)
SK-OV-3
  GI50: 39.2 µM (inactive)
U-251
  GI50: > 79.1 µM (inactive)
RPMI-8226
  GI50: > 100 µM (inactive)
RXF 393
  GI50: 39.5 µM (inactive)
HL-60
  GI50: > 100 µM (inactive)
MDA-N
  GI50: 6.84 µM (inactive)
SK-MEL-28
  GI50: > 100 µM (inactive)
SF-295
  GI50: 74 µM (inactive)
SK-MEL-2
  GI50: > 100 µM (inactive)
NCI/ADR-RES
  GI50: > 69.8 µM (inactive)
SR
  GI50: > 100 µM (inactive)
OVCAR-8
  GI50: > 67.5 µM (inactive)
NCI-H522
  GI50: > 54.8 µM (inactive)
PC-3
  GI50: > 100 µM (inactive)

## COc1cc(OC)c2c(O)c3c(cc2c1)CC(C)(C)CC3=O
DU-145
  GI50: > 100 µM (inactive)
HCC 2998
  GI50: > 100 µM (inactive)
COLO 205
  GI50: > 100 µM (inactive)
MDA-MB-231
  GI50: > 100 µM (inactive)
SK-OV-3
  GI50: > 100 µM (inactive)
SNB-19
  GI50: > 100 µM (inactive)
U-251
  GI50: 56.5 µM (inactive)
RPMI-8226
  GI50: > 100 µM (inactive)
RXF 393
  GI50: > 100 µM (inactive)
HL-60
  GI50: > 32.7 µM (inactive)
MDA-N
  GI50: > 64 µM (inactive)
SK-MEL-28
  GI50: 60.7 µM (inactive)
SF-295
  GI50: > 72.6 µM (inactive)
SK-MEL-2
  GI50: > 100 µM (inactive)
HT-29
  GI50: 5.96 µM (inactive)
NCI/ADR-RES
  GI50: > 100 µM (inactive)
SR
  GI50: > 26.7 µM (inactive)
OVCAR-8
  GI50: > 100 µM (inactive)
NCI-H522
  GI50: > 64.3 µM (inactive)
PC-3
  GI50: > 100 µM (inactive)

## CCOC(=O)C(NC(=O)CC)(Nc1ccc(S(=O)(=O)Nc2nc(C)cc(C)n2)cc1)C(F)(F)F (stereo unspecified)
DU-145
  GI50: > 100 µM (inactive)
HCC 2998
  GI50: > 100 µM (inactive)
COLO 205
  GI50: > 100 µM (inactive)
MDA-MB-231
  GI50: > 100 µM (inactive)
SK-OV-3
  GI50: > 100 µM (inactive)
SNB-19
  GI50: > 100 µM (inactive)
U-251
  GI50: > 100 µM (inactive)
RPMI-8226
  GI50: > 100 µM (inactive)
RXF 393
  GI50: > 100 µM (inactive)
HL-60
  GI50: > 100 µM (inactive)
MDA-N
  GI50: > 100 µM (inactive)
SK-MEL-28
  GI50: > 100 µM (inactive)
SF-295
  GI50: > 100 µM (inactive)
SK-MEL-2
  GI50: > 100 µM (inactive)
HT-29
  GI50: > 100 µM (inactive)
NCI/ADR-RES
  GI50: > 100 µM (inactive)
SR
  GI50: > 100 µM (inactive)
OVCAR-8
  GI50: > 100 µM (inactive)
NCI-H522
  GI50: 31.6 µM (inactive)
PC-3
  GI50: > 100 µM (inactive)

## CC1=NN(C(=O)CC(=O)Nc2ccccc2)C(=O)C1/N=N/c1ccc(C(=O)O)cc1 (stereo unspecified)
DU-145
  GI50: > 100 µM (inactive)
HCC 2998
  GI50: > 100 µM (inactive)
COLO 205
  GI50: > 100 µM (inactive)
MDA-MB-231
  GI50: > 100 µM (inactive)
SNB-19
  GI50: 80.5 µM (inactive)
U-251
  GI50: 97.3 µM (inactive)
RPMI-8226
  GI50: > 100 µM (inactive)
RXF 393
  GI50: > 100 µM (inactive)
HL-60
  GI50: > 100 µM (inactive)
MDA-N
  GI50: > 100 µM (inactive)
SK-MEL-28
  GI50: > 100 µM (inactive)
SF-295
  GI50: > 100 µM (inactive)
SK-MEL-2
  GI50: > 100 µM (inactive)
HT-29
  GI50: > 100 µM (inactive)
NCI/ADR-RES
  GI50: > 100 µM (inactive)
SR
  GI50: 50.6 µM (inactive)
OVCAR-8
  GI50: > 100 µM (inactive)
NCI-H522
  GI50: > 100 µM (inactive)
PC-3
  GI50: > 100 µM (inactive)

## N=c1oc2c(Br)cc(Br)cc2cc1C(=O)Nc1ccccn1
DU-145
  GI50: 81.5 µM (inactive)
HCC 2998
  GI50: > 100 µM (inactive)
COLO 205
  GI50: > 100 µM (inactive)
MDA-MB-231
  GI50: > 100 µM (inactive)
SK-OV-3
  GI50: > 100 µM (inactive)
SNB-19
  GI50: > 100 µM (inactive)
U-251
  GI50: 96.6 µM (inactive)
RPMI-8226
  GI50: 87.1 µM (inactive)
RXF 393
  GI50: 75.3 µM (inactive)
HL-60
  GI50: 57.5 µM (inactive)
MDA-N
  GI50: > 100 µM (inactive)
SK-MEL-28
  GI50: > 100 µM (inactive)
SK-MEL-2
  GI50: 30.1 µM (inactive)
HT-29
  GI50: 44.1 µM (inactive)
NCI/ADR-RES
  GI50: 61.4 µM (inactive)
SR
  GI50: 91 µM (inactive)
OVCAR-8
  GI50: 45.9 µM (inactive)
NCI-H522
  GI50: 47.2 µM (inactive)
PC-3
  GI50: 38.5 µM (inactive)

## N#CS/C(C(Cl)=C(Cl)Cl)=C(/Cl)[N+](=O)[O-]
DU-145
  GI50: 13.8 µM (inactive)
HCC 2998
  GI50: 18.6 µM (inactive)
COLO 205
  GI50: 1.49 µM (inactive)
MDA-MB-231
  GI50: 3.1 µM (inactive)
SK-OV-3
  GI50: 17 µM (inactive)
SNB-19
  GI50: 20.2 µM (inactive)
U-251
  GI50: 14.1 µM (inactive)
RPMI-8226
  GI50: 0.9 µM (active)
RXF 393
  GI50: 1.4 µM (inactive)
HL-60
  GI50: 0.219 µM (active)
MDA-N
  GI50: 1.8 µM (inactive)
SK-MEL-28
  GI50: 1.76 µM (inactive)
SF-295
  GI50: 22.2 µM (inactive)
SK-MEL-2
  GI50: 4.52 µM (inactive)
HT-29
  GI50: 1.9 µM (inactive)
NCI/ADR-RES
  GI50: 3.88 µM (inactive)
SR
  GI50: 0.778 µM (active)
OVCAR-8
  GI50: 1.75 µM (inactive)
NCI-H522
  GI50: 1.04 µM (active)
PC-3
  GI50: 5.33 µM (inactive)
